Converted amounts (≈) assume the structure as drawn. Read-outs that look alike come from different tables or passages of the source. Positions of bridges follow the written chain, without caps; N, C: chain ends. Non-standard residues stand in square brackets, D forms with d. Residues, ends and D or L forms follow the SMILES beside them. Lys(N3) = [N-]=[N+]=NCCCC[C@H](N)C(=O)O; hArg = N=C(N)NCCCC[C@H](N)C(=O)O; R8 = C=CCCCCCC[C@@](C)(N)C(=O)O; Cba = N[C@@H](CC1CCC1)C(=O)O; S5 = C=CCCC[C@](C)(N)C(=O)O; βAla = NCCC(=O)O

A short description of data set [1]: Solubility assay (kinetic solubility, PBS pH 7). The format is physicochemical. Particulars: pH 7, PBS; for solubility kinetic: pH 7, aqueous buffer, kinetic from dmso stock, read-out: Solubility. The method, boiled down: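 Std: 10 mM stock → 100 µM in ACN/MeOH/DMSO (10:80:10). Sol. [µM] = (sample peak area / std peak area) × std conc.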
A short description of data set [2]: in vitro. Particulars: Nanoclick permeability assay EC50. The method, boiled down: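 Azido-peptide permeability was read as loss of NanoBRET signal (donor 450 nm, acceptor 610 nm) after adding NanoBret618-azide at 10 μM final.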
Data set [3] can be described thus: physchem.
Data set [4] is described as follows: Experimental LogD (partition coefficient). The settings on record: for logD: not stated, Partition Coeff LogD.
Data set [5] can be described thus: Lactate dehydrogenase (LDH) release assay. Format: cell-based. The settings on record: LDH: Cytotoxicity assay EC50. The method, boiled down: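 HCT116 cells stably carrying a p53-responsive β-lactamase reporter were seeded at 8000 cells per well with a final DMSO level of 0.5%. Membrane integrity was assessed by lactate dehydrogenase release using a homogeneous fluorometric kit. Values are geometric means of at least three biological replicates.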

The target in data set [6] is T1, human Mdm2 1–125 (Homo sapiens, UniProt Q00987).
T1 construct: GST (N); His6 (internal); TEV cleavage site (ENLYFQG) (internal); made in house; host or cells: BL21 (DE3) Rosetta T1R Escherichia coli
T1 sequence (Q00987 with tags, fused parts or gaps): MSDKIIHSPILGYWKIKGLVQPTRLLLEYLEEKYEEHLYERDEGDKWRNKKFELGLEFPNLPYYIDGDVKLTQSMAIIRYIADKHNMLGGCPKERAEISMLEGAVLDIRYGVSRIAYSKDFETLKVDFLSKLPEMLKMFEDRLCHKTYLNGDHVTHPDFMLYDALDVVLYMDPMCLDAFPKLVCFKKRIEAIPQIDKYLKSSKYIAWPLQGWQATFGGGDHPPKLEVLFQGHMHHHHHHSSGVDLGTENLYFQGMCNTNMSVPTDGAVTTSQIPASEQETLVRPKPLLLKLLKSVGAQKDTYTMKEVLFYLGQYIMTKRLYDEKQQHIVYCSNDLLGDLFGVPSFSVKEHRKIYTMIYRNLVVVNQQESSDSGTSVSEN
Put plainly: Mdm2 binding by competitive fluorescence anisotropy assay (FP binding). The settings on record: read-out: FP binding assay KD.

Data set [7] concerns p53 responsive β-lactamase reporter in HCT116 cells. The data set can be described thus: cells. Particulars: read-out: p53 reporter assay EC50. Format: cell-based. The method, boiled down: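 Read-out used the ToxBLAzer Dual Screen for β-lactamase driven by a stably integrated p53-responsive reporter. Assay: 8000 HCT116 cells per well at 0.5% final DMSO. Reported numbers are geometric means over a minimum of three biological replicates.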

The test system of data set [8] is Jump-In T-REx CHO-K1 BLA cells. The data set can be described thus: cells. The format is cell-based. The settings on record: for EC50: read-out: TETCHO: Counterscreen EC50.

Regarding `CC(=O)N[C@@H](CCCCN=[N+]=[N-])C(=O)NCCC(=O)N[C@@H](CC(C)C)C(=O)N[C@H](C(=O)N[C@@H](Cc1ccccc1)C(=O)N[C@]1(C)CCCCCCC=CCCC[C@@](C)(C(=O)N[C@@H](CO)C(=O)N[C@@H](C)C(=O)N[C@@H](C)C(N)=O)NC(=O)[C@H](CC2CCC2)NC(=O)[C@H](CCCCNC(=N)N)NC(=O)[C@H](C)NC(=O)[C@H](Cc2c[nH]c3ccccc23)NC(=O)[C@H](Cc2ccc(O)cc2)NC(=O)[C@H](CCC(=O)O)NC1=O)[C@@H](C)O` [MP-900] (Ac-[Lys(N3)][βAla]LTF[R8]EYWA[hArg][Cba][S5]SAA-NH2; staple 6-13), the solubility kinetic in data set [1] was found to be 10 µM (≈ 20.1 µg/mL). The cell entry EC50 in data set [2] turned out to be 1040 nM. For the same molecule, the EPSA in data set [3] is 187 A^2. In data set [4], this molecule yielded a logD of 3.03.

On to `CC(=O)N[C@@H](CCCCN=[N+]=[N-])C(=O)NCCC(=O)N[C@@H](CC(C)C)C(=O)N[C@H](C(=O)N[C@@H](Cc1ccccc1)C(=O)N[C@]1(C)CCCCCCC=CCCC[C@@](C)(C(=O)N[C@@H](CO)C(=O)N[C@@H](CCCCNC(=N)N)C(=O)N[C@@H](C)C(N)=O)NC(=O)[C@H](CC2CCC2)NC(=O)[C@H](CCC(N)=O)NC(=O)[C@H](C)NC(=O)[C@H](Cc2c[nH]c3ccccc23)NC(=O)[C@H](Cc2ccc(O)cc2)NC(=O)[C@H](CCC(=O)O)NC1=O)[C@@H](C)O` [MP-881] (Ac-[Lys(N3)][βAla]LTF[R8]EYWAQ[Cba][S5]S[hArg]A-NH2; staple 6-13), for which, in data set [5], the EC50 is more than 50000 nM. In data set [1], the solubility kinetic was 2 µM (≈ 4.14 µg/mL). In addition, the cell entry EC50 in data set [2] came out at 1920 nM. The EPSA in data set [3] was found to be 183 A^2. For the same molecule, in data set [4], the logD is 2.9.

In turn, `CC(=O)N[C@@H](CCCCN=[N+]=[N-])C(=O)NCCC(=O)N[C@@H](CC(C)C)C(=O)N[C@H](C(=O)N[C@@H](Cc1ccccc1)C(=O)N[C@]1(C)CCCCCCC=CCCC[C@@](C)(C(=O)N[C@@H](CO)C(=O)N[C@@H](C)C(=O)N[C@@H](C)C(N)=O)NC(=O)[C@H](CC2CCC2)NC(=O)[C@H](CCC(N)=O)NC(=O)[C@H](CCCCNC(=N)N)NC(=O)[C@H](Cc2c[nH]c3ccccc23)NC(=O)[C@H](Cc2ccc(O)cc2)NC(=O)[C@H](CCC(=O)O)NC1=O)[C@@H](C)O` [MP-899] (Ac-[Lys(N3)][βAla]LTF[R8]EYW[hArg]Q[Cba][S5]SAA-NH2; staple 6-13) yielded an EC50 in data set [5] of more than 50000 nM. For the same molecule, the solubility kinetic in data set [1] was 2 µM (≈ 4.14 µg/mL). Besides, in data set [2], the cell entry EC50 was 189 nM. In data set [3], the EPSA was found to be 200 A^2. Further, the log distribution coefficient (logD) in data set [4] worked out at 2.76.

`CC(=O)N[C@@H](CCCCN=[N+]=[N-])C(=O)NCCC(=O)N[C@@H](CC(C)C)C(=O)N[C@H](C(=O)N[C@@H](Cc1ccccc1)C(=O)N[C@]1(C)CCCCCCC=CCCC[C@@](C)(C(=O)N[C@@H](CCCCNC(=N)N)C(=O)N[C@@H](C)C(=O)N[C@@H](C)C(N)=O)NC(=O)[C@H](CC2CCC2)NC(=O)[C@H](CCC(N)=O)NC(=O)[C@H](C)NC(=O)[C@H](Cc2c[nH]c3ccccc23)NC(=O)[C@H](Cc2ccc(O)cc2)NC(=O)[C@H](CCC(=O)O)NC1=O)[C@@H](C)O` [MP-901] (Ac-[Lys(N3)][βAla]LTF[R8]EYWAQ[Cba][S5][hArg]AA-NH2; staple 6-13) yielded an EC50 in data set [5] of more than 50600 nM. Further, the Solubility result in data set [1] was “Poorly Behaved”. Also, in data set [2], the cell entry EC50 was determined as 460 nM. This molecule also registered an EPSA in data set [3] of 186 A^2. Further, the “Partition Coeff LogD” value in data set [4] is given as “Poorly Behaved”.

`CC[C@H](C)[C@H](NC(=O)[C@H](CC(C)C)NC(=O)[C@@H]1CCCN1C(C)=O)C(=O)N[C@@H](Cc1ccc(O)cc1)C(=O)N[C@@H](CC(C)C)C(=O)N[C@@H](CCCNC(=N)N)C(=O)N[C@@H](CC(C)C)C(=O)N[C@@H](CC(C)C)C(=O)N[C@@H](CCCNC(=N)N)C(=O)NCC(=O)N[C@@H](CCC(N)=O)C(=O)N[C@@H](Cc1ccccc1)C(=O)N[C@@H](CCCCN=[N+]=[N-])C(=O)NCCC(=O)N[C@@H](CC(C)C)C(=O)N[C@H](C(=O)N[C@@H](Cc1ccccc1)C(=O)N[C@]1(C)CCCCCCC=CCCC[C@@](C)(C(=O)N[C@@H](CO)C(=O)N[C@@H](C)C(=O)N[C@@H](C)C(N)=O)NC(=O)[C@H](CC2CCC2)NC(=O)[C@H](CCC(N)=O)NC(=O)[C@H](C)NC(=O)[C@H](Cc2c[nH]c3ccccc23)NC(=O)[C@H](Cc2ccc(O)cc2)NC(=O)[C@H](CCC(=O)O)NC1=O)[C@@H](C)O` [MP-880]: the EC50 in data set [5] is more than 50000 nM. Besides, the solubility kinetic in data set [1] worked out at 2 µM (≈ 6.88 µg/mL). Also, the cell entry EC50 in data set [2] is 569 nM. Moreover, the EPSA in data set [3] stood at 245 A^2. Further, the logD in data set [4] was determined as 3.54.

Take `CC(=O)N[C@@H](CO)C(=O)NCC(=O)N[C@@H](CO)C(=O)N[C@H](C(=O)N[C@@H](CO)C(=O)N[C@@H](Cc1ccccc1)C(=O)N[C@]1(C)CCCCCCC=CCCC[C@@](C)(C(N)=O)NC(=O)[C@H](CC(C)C)NC(=O)[C@H](CC(C)C)NC(=O)[C@H](C)NC(=O)[C@H](Cc2c[nH]c3ccccc23)NC(=O)[C@H](Cc2ccc(O)cc2)NC(=O)[C@H](CCC(=O)O)NC1=O)[C@@H](C)O` [MP-654]: in data set [6], the Kd amounted to 5.86 nM. Besides, the EC50 in data set [7] (0% FBS 4Hr) is 10200 nM; in data set [7] (0% FBS 16Hr), 13800 nM; in data set [5] it was more than 50000 nM; in data set [8] (0% FBS 4Hr), more than 50600 nM; in data set [8] (0% FBS 16Hr), more than 50000 nM. Moreover, the “TETCHO: Counterscreen % Effect” value was found to be 1.563% in data set [8] (0% FBS 4Hr) and 3.969% in data set [8] (0% FBS 16Hr). Also, in data set [1], the solubility kinetic worked out at 23 µM (≈ 39 µg/mL). The EPSA in data set [3] is 217 A^2. The molecule further returned a logD in data set [4] of 2.3.

As to `CC(=O)N[C@@H](CCCCN=[N+]=[N-])C(=O)NCCC(=O)N[C@@H](CC(C)C)C(=O)N[C@H](C(=O)N[C@@H](Cc1ccccc1)C(=O)N[C@]1(C)CCCCCCC=CCCC[C@@](C)(C(=O)N[C@@H](CO)C(=O)N[C@@H](C)C(=O)N[C@@H](C)C(N)=O)NC(=O)[C@H](CC2CCC2)NC(=O)[C@H](CCC(N)=O)NC(=O)[C@H](C)NC(=O)[C@H](Cc2c[nH]c3ccccc23)NC(=O)[C@H](Cc2ccc(O)cc2)NC(=O)[C@H](CCCCNC(=N)N)NC1=O)[C@@H](C)O` [MP-6898] (Ac-[Lys(N3)][βAla]LTF[R8][hArg]YWAQ[Cba][S5]SAA-NH2; staple 6-13), the EC50 in data set [5] was 12400 nM. In addition, in data set [1], the solubility kinetic is 2 µM (≈ 4.02 µg/mL). For the same molecule, the cell entry EC50 in data set [2] amounted to 2120 nM. In addition, the EPSA in data set [3] worked out at 181 A^2. For the same molecule, the logD in data set [4] turned out to be 3.21.

Turning to `CC(=O)N[C@@H](CCCCN=[N+]=[N-])C(=O)N[C@H](C(=O)N[C@@H](CO)C(=O)N[C@@H](Cc1ccccc1)C(=O)N[C@]1(C)CCCCCCC=CCCC[C@@](C)(C(=O)N[C@@H](CO)C(=O)N[C@@H](C)C(=O)N[C@@H](C)C(N)=O)NC(=O)[C@H](CC2CCC2)NC(=O)[C@H](CCC(N)=O)NC(=O)[C@H](C)NC(=O)[C@H](Cc2c[nH]c3ccccc23)NC(=O)[C@H](Cc2ccc(O)cc2)NC(=O)[C@H](C)NC1=O)[C@@H](C)O` [MP-703] (Ac-[Lys(N3)]TSF[R8]AYWAQ[Cba][S5]SAA-NH2; staple 5-12), the EC50 in data set [7] (0% FBS 4Hr) was 302 nM; in data set [7] (0% FBS 16Hr), 870 nM; in data set [5] it was more than 50000 nM; in data set [8] (0% FBS 4Hr) it was more than 50600 nM. For the same molecule, the “TETCHO: Counterscreen % Effect” value in data set [8] (0% FBS 4Hr) came to 32.8%. For the same molecule, the Solubility entry in data set [1] is reported as “Poorly Behaved”. This molecule yielded an EPSA in data set [3] of 178 A^2. In data set [4], the “Partition Coeff LogD” value is “Poorly Behaved”.

In data set [5], `CC(=O)N[C@@H](CCCCN=[N+]=[N-])C(=O)NCCC(=O)N[C@@H](CC(C)C)C(=O)N[C@H](C(=O)N[C@@H](Cc1ccccc1)C(=O)N[C@]1(C)CCCCCCC=CCCC[C@@](C)(C(=O)N[C@@H](CO)C(=O)N[C@@H](C)C(=O)N[C@@H](CCCCNC(=N)N)C(N)=O)NC(=O)[C@H](CC2CCC2)NC(=O)[C@H](CCC(N)=O)NC(=O)[C@H](C)NC(=O)[C@H](Cc2c[nH]c3ccccc23)NC(=O)[C@H](Cc2ccc(O)cc2)NC(=O)[C@H](CCC(=O)O)NC1=O)[C@@H](C)O` [MP-902] (Ac-[Lys(N3)][βAla]LTF[R8]EYWAQ[Cba][S5]SA[hArg]-NH2; staple 6-13) gave an EC50 of more than 50000 nM. Also, the solubility kinetic in data set [1] was determined as 6 µM (≈ 12.4 µg/mL). Also, in data set [2], the cell entry EC50 turned out to be 2650 nM. The molecule further displayed an EPSA in data set [3] of 191 A^2. Moreover, in data set [4], the logD is 2.54.

For the origin of these results see PMC10786919, “Design-rules for stapled peptides with in vivo activity and their application to Mdm2/X antagonists” (Nature Communications, 2024).
